pEC50, pIC50, pKi: −log10 of the molar value. Structures can show the parent of a compound that is named as a salt. Positions of bridges follow the written chain, without caps; N, C: chain ends. Residues, ends and D or L forms follow the SMILES beside them.
What was measured:
[1] = Binding affinity to wildtype DENV3 protease assessed as inhibition constant using [Ac-[D-EDANS]KRRSWP[K-DABCYL]-AMIDE] as substrate by FRET-based enzymatic assay; design: species or system dengue virus type 3
[2] = biological target: T1, Genome polyprotein (dengue virus type 2, UniProt P29990); assay: Inhibition of DENV2 NS2B-NS3 protease using […] as substrate preincubated for 10 mins followed by substrate addition and incubated for 60 mins by fluorescence spectroscopy assay
[3] = Permeability of the compound at pH 7.4; format: ADME; settings: PAMPA, read-out: permeability
[4] = biological target: T1, Genome polyprotein; assay: Binding affinity to DENV2 NS2B/NS3 protease assessed as inhibition constant
[5] = biological target: T1, Genome polyprotein; assay: Inhibition of DENV2 NS2B-NS3 protease
[6] = biological target: T1, Genome polyprotein; assay: Inhibition of DENV2 NS2B-NS3 protease using Boc-Gly-Arg-Arg-7-amino-4-methylcoumarin as substrate incubated for 10 mins by fluorometric assay
[7] = test system: dengue virus type 2; assay: Antiviral activity against Dengue virus 2 infected in african green monkey Vero cells assessed as reduction in viral titer; format: functional, organism-based
[8] = biological target: T1, Genome polyprotein; assay: Inhibition of DENV2 NS2B-NS3 protease using fluorophore-tagged Bz-nKRR-AMC as substrate preincubated for 30 mins followed by substrate addition measured after 90 mins by microplate reader analysis
[9] = test system: dengue virus type 2; assay: Antiviral activity against DENV2; format: functional, organism-based
[10] = Inhibition of DENV2 pro; design: species or system dengue virus type 2

T1 sequence (P29990 1346-1475 limits assumed): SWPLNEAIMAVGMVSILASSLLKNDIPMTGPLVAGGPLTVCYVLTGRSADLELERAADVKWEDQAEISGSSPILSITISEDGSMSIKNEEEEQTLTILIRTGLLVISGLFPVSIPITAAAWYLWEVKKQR
T1 sequence (P29990 1476-2093 limits assumed): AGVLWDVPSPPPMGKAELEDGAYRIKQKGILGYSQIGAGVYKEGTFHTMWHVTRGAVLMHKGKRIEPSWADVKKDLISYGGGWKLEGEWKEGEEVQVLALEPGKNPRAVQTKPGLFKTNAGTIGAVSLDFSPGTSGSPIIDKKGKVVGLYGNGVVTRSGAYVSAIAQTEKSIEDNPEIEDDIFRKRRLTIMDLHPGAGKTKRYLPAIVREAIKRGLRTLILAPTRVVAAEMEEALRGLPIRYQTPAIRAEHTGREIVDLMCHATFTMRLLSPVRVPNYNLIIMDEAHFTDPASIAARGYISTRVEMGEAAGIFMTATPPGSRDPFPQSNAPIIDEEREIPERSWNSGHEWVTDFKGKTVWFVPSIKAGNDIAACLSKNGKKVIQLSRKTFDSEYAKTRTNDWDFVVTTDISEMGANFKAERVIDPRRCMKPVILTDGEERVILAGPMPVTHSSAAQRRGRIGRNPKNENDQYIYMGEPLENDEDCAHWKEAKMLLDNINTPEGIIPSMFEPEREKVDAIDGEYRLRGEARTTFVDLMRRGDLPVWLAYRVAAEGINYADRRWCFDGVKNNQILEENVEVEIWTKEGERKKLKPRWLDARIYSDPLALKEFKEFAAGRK

CC[C@H](C)[C@@H]1NC(=O)[C@H](CCCNC(=N)N)NC(=O)[C@H](C)NC(=O)[C@H](CCCCN)NC(=O)[C@@H](NC(=O)[C@@H]2CCCN2)CSSC[C@@H](C(=O)N[C@@H](C)C(=O)O)NC(=O)CNC(=O)CNC(=O)[C@H](Cc2ccc(O)cc2)NC(=O)CNC(=O)CNC(=O)[C@H]([C@@H](C)CC)NC1=O (H-PCKARIIGGYGGCA-OH; disulfide 2-13)
pKi [1]: 3.17

CC[C@H](C)[C@@H]1NC(=O)[C@H](CCCNC(=N)N)NC(=O)[C@H](C)NC(=O)[C@H](CCCNC(=N)N)NC(=O)[C@@H](NC(=O)[C@@H]2CCCN2)CSSC[C@@H](C(=O)N[C@@H](C)C(=O)O)NC(=O)CNC(=O)[C@H](Cc2ccc(O)cc2)NC1=O (H-PCRARIYGCA-OH; disulfide 2-9)
pKi [1]: 3.33

COc1cc(O)c(C(=O)[C@@H]2[C@H](CC=C(C)C)C(C)=CC[C@H]2c2ccccc2)c(O)c1 [PANDURATIN A]
pIC50 [2]: 4.24

N#C/C(=C\c1ccc(O)cc1)C(N)=O
Papp [3]: 8.4 ×10⁻⁶ cm/s | pKi [4]: 4.45 | pKi [5]: 4.45

N=C(N)N/N=C/c1ccc(/C=N/NC(=N)N)cc1
pKi [4]: 4.36 | pKi [5]: 4.36

CC[C@H](C)[C@@H]1NC(=O)[C@H](Cc2c[nH]c3ccccc23)NC(=O)[C@H](C)NC(=O)[C@H](CCCNC(=N)N)NC(=O)[C@@H](NC(=O)[C@@H]2CCCN2)CSSC[C@@H](C(=O)N[C@H](CCCNC(=N)N)C(=O)O)NC(=O)CNC(=O)CNC(=O)[C@H](Cc2ccc(O)cc2)NC1=O
pKi [1]: 4.71

CC[C@H](C)[C@@H]1NC(=O)[C@H](CCCNC(=N)N)NC(=O)[C@H](C)NC(=O)[C@H](CCCCN)NC(=O)[C@@H](NC(=O)[C@@H]2CCCN2)CSSC[C@@H](C(=O)N[C@@H](C)C(=O)O)NC(=O)CNC(=O)CNC(=O)[C@H](Cc2ccc(O)cc2)NC(=O)CNC1=O (H-PCKARIGYGGCA-OH; disulfide 2-11)
pKi [1]: 3.42

O=C(Nc1nc2ccc([N+](=O)[O-])cc2s1)c1ccccc1Sc1ccc([N+](=O)[O-])cc1
pIC50 [6]: 4.47

O=C1/C(=C\c2ccc([N+](=O)[O-])cc2)CN(CC(=O)c2ccc(F)cc2)C/C1=C/c1ccc([N+](=O)[O-])cc1
pIC50 [2]: 4.82

O=C(O)c1cc2sc(NC(=O)c3ccccc3Sc3ccc(C(F)(F)F)cc3)nc2cc1O
pEC50 [7]: 6.05

CC[C@H](C)[C@@H]1NC(=O)[C@H](CCCNC(=N)N)NC(=O)[C@H](C)NC(=O)[C@H](CCCNC(=N)N)NC(=O)[C@@H](NC(=O)[C@@H]2CCCN2)CSSC[C@@H](C(=O)N[C@@H](C)C(=O)O)NC(=O)CNC1=O (H-PCRARIGCA-OH; disulfide 2-8)
pKi [1]: 3.99

CO[C@H]1C[C@H](O[C@@H]2/C(C)=C/C[C@@H]3C[C@@H](C[C@]4(CC[C@H](C)[C@@H](C5CCCCC5)O4)O3)OC(=O)[C@@H]3C=C(C)/C(=N/O)[C@H]4OC/C(=C\C=C\[C@@H]2C)[C@]43O)O[C@@H](C)[C@@H]1O [SELAMECTIN]
pKi [4]: 4.20

IVERMECTIN
pKi [4]: 4.10 | pKi [5]: 4.10

COc1ccc(S(=O)(=O)n2nc(Oc3ccc(-c4ccccc4)cc3)cc2N)cc1
pIC50 [8]: 5.54

Cc1c(O)cccc1C(=O)NC(CSc1ccccc1)C(O)CN1CC2CCCCC2C[C@H]1C(=O)NC(C)(C)C (some centres undefined)
pEC50 [9]: 5.46

Oc1c(C(Nc2ccccc2)c2ccccn2)ccc2cccnc12 (centres undefined)
Papp [3]: 4.12 ×10⁻⁶ cm/s | pKi [4]: 4.77 | pKi [5]: 4.77

CCCCC(CC)CN=C(N)N=C(N)NCCCCCCNC(N)=NC(N)=NCC(CC)CCCC (centres undefined) [ALEXIDINE HYDROCHLORIDE]
pKi [5]: 4.39

O=C(Nc1nc2cc(O)c(O)cc2s1)c1ccccc1Sc1ccc(C(F)(F)F)cc1
pEC50 [7]: < 5.52 | pIC50 [10]: 5.44

COc1cc2nc(NC(=O)c3ccccc3Sc3ccc(C(F)(F)F)cc3)sc2cc1OC
pEC50 [7]: 5.60

O=C(Nc1nc2ccc([N+](=O)[O-])cc2s1)c1cccc(Sc2ccc([N+](=O)[O-])cc2)c1
pEC50 [7]: 6.52 | pIC50 [6]: 4.59

CCN1/C(=C/C=C/c2oc3ccc4ccccc4c3[n+]2CC)Oc2ccc3ccccc3c21
pIC50 [5]: 4.57

Source: ChEMBL document CHEMBL5096200, “A short survey of dengue protease inhibitor development in the past 6 years (2015-2020) with an emphasis on similarities between DENV and SARS-CoV-2 proteases” (Bioorg Med Chem, 2021)
